Marks after values point to notes of the source that are not given here.
Key:
Assay type in all cases: in vivo
[1] = tested on: Puccinia recondite f. sp. tritici (the causal agent of wheat leaf rust); assay: Test A: wheat leaf rust, preventive spray on wheat seedlings, visual disease rating; settings: wheat leaf rust, preventive spray on wheat seedlings
Procedure, shortened: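 Wheat seedlings were sprayed to run-off with compound suspended in acetone/water containing 250 ppm Trem 014 (200 ppm ≈ 800 g/ha; some at 40 ppm). Puccinia recondite spores were inoculated the next day. Plants were held 24 h saturated at 20° C, then 7 days at 20° C, and disease control was rated visually on a 0–100 scale against controls.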

[2] = tested on: Septoria tritici (the causal agent of wheat leaf blotch); assay: Test B: wheat leaf blotch, preventive spray on wheat seedlings, visual disease rating; settings: wheat leaf blotch, preventive spray on wheat seedlings
Procedure, shortened: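 Wheat seedlings sprayed to run-off with compound suspension (acetone/water with 250 ppm Trem 014; 200 ppm ≈ 800 g/ha, some at 40 ppm), inoculated next day with Septoria tritici spores. 48 h saturated humidity at 24 °C, then 19 days at 20 °C; visual rating, 100 = full control.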

[3] = tested on: Blumeria graminis f. sp. tritici (also known as Erysiphe graminis f. sp. tritici, the causal agent of wheat powdery mildew); assay: Test D: wheat powdery mildew, preventive spray on wheat seedlings, visual disease rating; settings: wheat powdery mildew, preventive spray on wheat seedlings
Procedure, shortened: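 Compound suspended in acetone/water (50/50) with 250 ppm Trem 014 and sprayed to run-off on wheat seedlings (200 ppm ≈ 800 g/ha), then inoculated next day with spore dust. Disease rated visually after 8 days at 20 °C as % control relative to untreated plants (0-100).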

[4] = tested on: Botrytis cinerea (the causal agent of tomato Botrytis); assay: Test C: tomato Botrytis, preventive spray on tomato seedlings, visual disease rating; settings: tomato Botrytis, preventive spray on tomato seedlings
Procedure, shortened: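 Test suspension (acetone/water with 250 ppm Trem 014; 200 ppm equivalent to 800 g/ha) sprayed to run-off on tomato seedlings; B. cinerea spores inoculated next day. After 48 h saturated humidity at 20° C then 3 days at 24° C, disease rated visually as % control relative to untreated controls (0–100).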

[5] = asterisk: 40 ppm test suspension
[6] = no asterisk (standard test suspension concentration, not 40 ppm)

SMILES	Test A rating (100 = 100% disease control, 0 = no disease control relative to the controls) [1, 5]	Test B rating (100 = 100% disease control, 0 = no disease control relative to the controls) [2, 5]	Test D rating (100 = 100% disease control, 0 = no disease control relative to the controls) [3, 5]	Test C rating (100 = 100% disease control, 0 = no disease control relative to the controls) [4, 5]	Test A rating (100 = 100% disease control, 0 = no disease control relative to the controls) [1, 6] [%]	Test B rating (100 = 100% disease control, 0 = no disease control relative to the controls) [2, 6] [%]	Test D rating (100 = 100% disease control, 0 = no disease control relative to the controls) [3, 6] [%]	Test C rating (100 = 100% disease control, 0 = no disease control relative to the controls) [4, 6] [%]
COc1ccc(C(O)c2c(Cl)nc(C)n2-c2c(F)cc(F)cc2Cl)c(Cl)c1 (stereo not drawn) [compound 350]	100* %	100* %	98* %	98* %				
COc1ccc(C(O)c2c(Br)nc(C)n2-c2c(F)cc(F)cc2Br)c(Cl)c1 (stereo not drawn) [compound 351]	100* %	100* %	95* %	90* %				
COc1ccc(C(O)c2cnc(CCl)n2-c2c(F)cc(F)cc2Br)c(Cl)c1 (stereo not drawn) [compound 352]					100	100	95	99
Cc1nc(Br)c(C(O)c2c(F)cc(F)cc2F)n1-c1ccc(Cl)cc1 (stereo not drawn) [compound 353]					9	44	0	28
COc1ccc(C(O)c2c(Br)ncn2-c2ccc(F)cc2Cl)c(Cl)c1 (stereo not drawn) [compound 354]	94* %	18* %	0* %	0* %				
COc1ccc(C(O)c2c(Br)nc(Br)n2-c2ccc(F)cc2Cl)c(Cl)c1 (stereo not drawn) [compound 355]	100* %	100* %	97* %	100* %				
COc1ccc(C(O)c2c(Cl)ncn2-c2ccc(F)cc2Cl)c(Cl)c1 (stereo not drawn) [compound 356]	95* %	19* %	0* %	0* %				
COc1ccc(C(O)c2c(Cl)nc(Br)n2-c2ccc(F)cc2Cl)c(Cl)c1 (stereo not drawn) [compound 357]	100* %	100* %	98* %	99* %				
COc1ccc(C(O)c2c(Br)nc(Cl)n2-c2ccc(F)cc2Cl)c(Cl)c1 (stereo not drawn) [compound 358]	100* %	100* %	99* %	100* %				
Cc1ncc(C(O)c2c(F)cc(Cl)cc2F)n1-c1ccc(F)cc1Cl (stereo not drawn) [compound 359]					68	0	0	0
Cc1ncc(C(O)c2ccc(F)cc2Cl)n1-c1ccc(F)cc1F (stereo not drawn) [compound 360]					99	93	0	67
Cc1ncc(C(O)c2c(F)cc(F)cc2F)n1-c1ccc(Cl)cc1Cl (stereo not drawn) [compound 361]					95	15	0	9
Cc1nc(Br)c(C(O)c2c(F)cc(Cl)cc2F)n1-c1ccc(F)cc1Cl (stereo not drawn) [compound 362]					99	85	0	0
COc1cc(F)c(C(O)c2cnc(C)n2-c2ccc(F)cc2Cl)c(F)c1 (stereo not drawn) [compound 363]					98	74	0	9
COc1cc(F)c(C(O)c2c(Br)nc(C)n2-c2ccc(F)cc2Cl)c(F)c1 (stereo not drawn) [compound 364]					100	100	95	100
Cc1nc(Br)c(C(O)c2c(F)cc(F)cc2F)n1-c1ccc(Cl)cc1Cl (stereo not drawn) [compound 365]					100	100	64	100
Cc1cc(F)ccc1C(O)c1c(Cl)nc(C)n1-c1c(Cl)cccc1Cl (stereo not drawn) [compound 366]					99	100	97	100
Cc1cc(F)ccc1C(O)c1c(Br)nc(C)n1-c1c(Cl)cccc1Cl (stereo not drawn) [compound 367]					98	100	96	96

Reference: patent publication US20130143929A1, “FUNGICIDAL IMIDAZOLES” (EI DU PONT DE NEMOURS AND COMPANY, priority 2010, published 2013)
